Assay results as given in patent publication US6960458B2, “Erythrose reductase, its cDNA and cell which the cDNA express” (Director of National Food Research Institute, Ministry of …, priority 2001, dated 2005).

Columns and labels:
[1] = test system: recombinant erythrose reductase type III; test: Substrate specificity of purified recombinant erythrose reductase type III, NADPH consumption at 340 nm; format: biochemical, Trichosporonoides megachiliensis; conditions: rate with D-erythrose = 100%; 12 mM substrate, 0.2 mM NADPH, 50 mM phosphate buffer pH 6.5, 37° C., 5 minutes
Experimental: (§1) The substrate specificities of the purified recombinant erythrose reductases type III, type II, and type I were compared with that of the erythrose reductase heretofore reported (natural type: H. Ishizuka et al., Biosci. Biotech. Biochem., 56(6), 941-945, 1992).
(§2) In the presence of 50 mM of a phosphate buffer at pH 6.5, 12 mM of a substrate, and 0.2 mM of NADPH, 20 μL of an enzyme was acted (1 mL in total), and a change with time in optical absorbance at 340 nm was measured at 37° C. for 5 minutes.
(§3) With the reaction rate at which erythrose is reduced as a substrate as being 100%, relative values (%) of reaction rates for reducing various ketoses and aldoses are shown in Table 1.

[2] = test system: recombinant erythrose reductase type II; test: Substrate specificity of purified recombinant erythrose reductase type II, NADPH consumption at 340 nm; format: biochemical, Trichosporonoides megachiliensis; conditions: rate with D-erythrose = 100%; 12 mM substrate, 0.2 mM NADPH, 50 mM phosphate buffer pH 6.5, 37° C., 5 minutes
Experimental: as §1, §2, §3

[3] = test system: recombinant erythrose reductase type I; test: Substrate specificity of purified recombinant erythrose reductase type I, NADPH consumption at 340 nm; format: biochemical, Trichosporonoides megachiliensis; conditions: rate with D-erythrose = 100%; 12 mM substrate, 0.2 mM NADPH, 50 mM phosphate buffer pH 6.5, 37° C., 5 minutes
Experimental: as §1, §2, §3

[4] = test system: natural type erythrose reductase type III; conditions: rate with D-erythrose = 100%; 12 mM substrate, 0.2 mM NADPH, 50 mM phosphate buffer pH 6.5, 37° C.; reported natural type (Ishizuka et al. 1992); cited from earlier work
[5] = IEF-PAGE (isoelectric focusing) of purified recombinant erythrose reductases; format: physicochemical; conditions: Phast Gel IEF pH 4-6.5, from mobility of band
Experimental: On the purified recombinant erythrose reductases, IEF-PAGE was carried out with a fully automatic electrophoresis system called Phast System (produced by Amersham Pharmacia Biotech), using a gel (trade name: Phast Gel (IEF pH 4-6.5), manufacturer: Amersham Pharmacia Biotech).
Electrophoresis was conducted using a pH gradient gel, and the separated proteins were stained.
From FIG. 9, the isoelectric point of each enzyme could be confirmed from the mobility of a band.

Molecule	Relative value (%) of reaction rate, Recombinant type Type III [1] [%]	Relative value (%) of reaction rate, Recombinant type Type II [2] [%]	Relative value (%) of reaction rate, Recombinant type Type I [3] [%]	Relative value (%) of reaction rate, Normal type Type III [4] [%]	isoelectric point (pI) [5]
O=C[C@@H](O)[C@H](O)[C@H](O)CO [D-arabinose]	0.0	0.0	0.9	0.0	–
O=C[C@H](O)[C@H](O)CO [D-erythrose]	100.0	100.0	100.0	100.0	–
O=C(CO)[C@@H](O)[C@H](O)[C@H](O)CO [D-fructose]	0.0	0.0	0.0	0.0	–
O=C[C@H](O)[C@@H](O)[C@@H](O)[C@H](O)CO [D-galactose]	0.0	0.0	0.0	0.0	–
O=C[C@H](O)[C@@H](O)[C@H](O)[C@H](O)CO [D-glucose]	0.0	0.0	0.0	0.0	–
O=C[C@H](O)[C@@H](O)[C@H](O)[C@H](O)C(=O)O [D-glucuronate]	0.8	0.0	0.7	6.6	–
O=C[C@H](O)CO [D-glyceraldehyde]	98.2	107.8	102.0	66.0	–
O=C[C@@H](O)[C@@H](O)[C@H](O)[C@H](O)CO [D-mannose]	0.0	0.0	0.0	0.0	–
O=C[C@H](O)[C@H](O)[C@H](O)CO [D-ribose]	2.3	0.7	1.0	1.2	–
O=C[C@H](O)[C@@H](O)[C@H](O)CO [D-xylose]	4.5	2.4	3.2	1.2	–
O=C(CO)[C@@H](O)[C@H](O)CO [D-xylulose]	7.8	3.5	7.5	0.0	–
O=C(CO)[C@@H](O)CO [L-erythrulose]	–	–	–	38.0	–
O=C(CO)[C@@H](O)[C@H](O)[C@@H](O)CO [L-sorbose]	0.0	0.0	0.0	0.0	–
OC[C@H]1O[C@H](O[C@H]2O[C@H](CO)[C@@H](O)[C@H](O)[C@H]2O)[C@H](O)[C@@H](O)[C@@H]1O [Trehalose]	0.0	0.0	0.0	0.0	–
O=Cc1ccc([N+](=O)[O-])cc1 [p-nitrobenzaldehyde]	66.3	8.8	11.5	46.0	–
purified recombinant erythrose reductase type II: recombinant enzyme of SEQ. ID No. 4 expressed in E. coli, histidine Tag cleaved (protein) MSYKQYIPLNDGNKIPALGFGTWQAEPGQVGASVKNAVKAGYRHLDLAKVYQNQSEIGVALQELFDQGIVKREDLFITSKVWNNRHAPEHVEPALDETLKELGLSYLDLYLIHWPVAFKFTTPQELFPTEPDNKELAAIDDSIKLVDTWKAVVALKKTGKTKSVGVSNFTTDLVDLVEKASGERPAVNQIEAHPLLQQDELVAHHKSKNIVITAYSPLGNNVSGKPPLTQNPGIEATAKRLNHTPAAVLLAWGIQRGYSVLVKSVTPSRIESNYDQITLSPEEFQKVTDLIKEYGESRNNIPLNYKPSWPISVFGTSDEAKATHKINTNL	–	–	–	–	5.3
purified recombinant erythrose reductase type III: recombinant enzyme of SEQ. ID No. 2 expressed in E. coli, histidine Tag cleaved (protein) MSYKQYIPLNDGNKIPALGFGTWQAEPGQVGASVKNAVKAGYRHLDLAKVYQNQSEIGVALQELFDQGIVKREDLFITSKVWNNRHAPEHVEPALDETLKELGLSYLDLYLIHWPVAFKFTTPQELFPTEPDNKELAAIDDSIKLVDTWKAVVALKKTGKTKSVGVSNFTTDLVDLVEKASGERPAVNQIEAHPLLQQDELVAHHKSKNIVITAYSPLGNNVSGKPPLTQNPGIEATAKRLNHTPAAVLLAWGIQRGYSVLVKSVTPSRIESNYDQITLSPEEFQKVTDLIKEYGESRNNIPLNYKPSWPISVFGTSDEAKATHKINTNL	–	–	–	–	5.8
purified recombinant erythrose reductase type I: recombinant enzyme of SEQ. ID No. 6 expressed in E. coli, histidine Tag cleaved (protein) MSYNKNIPLNDGNSIPALGYGTWQAEPGQVGEGVKLAVKAGYRHLDLAKVYQNQTEIGQALKELFDEGVVKREDLFITSKLWNNRHAPEHVEPALDETLKELGLSYLDLYLIHWPVAFKFTTPDELLPADPTNKDLAYIDDSVKLSDTWKAVVALKKTGKTKSVGVSNFSTRLVDLVEEASGERPAVNQIEAHPLLQQDELVAHHKSKNIVITAYSPLGNNVAGKPPLTENPGIVDAAKRLNHTPAAVLIAWGIQRGYSVLVKSVTPSRIKSNFEQITLSDEEFQRVTNLIKEYGESRNNVPFNYKPSWSIDVFGTQYEAKATHKINA	–	–	–	–	4.7
